Legend:
[1] = system: methicillin resistant S. aureus Mu50 strain (S. aureus ATCC700699) biofilm; assay: Biofilm susceptibility to vancomycin, combination treatment regimen (mature biofilm treated with compound plus vancomycin); format: cell-based; conditions: for Combin. (100 μM): percentage Colony Forming Units (CFU's) per biofilm: compound 100 μM together with VAN 20 μg/ml on mature biofilm; for Combin. (100 μM): percentage Colony Forming Units (CFU's) per biofilm / Combin. (25 μM): percentage Colony Forming Units (CFU's) per biofilm: compared to the untreated (negative) control; for EC50: concentration needed to get 50% killing compared to antibiotic alone (VAN 20 μg/ml) and complete killing, read-out: Combin. (EC50); for Combin. (25 μM): percentage Colony Forming Units (CFU's) per biofilm: compound 25 μM together with VAN 20 μg/ml on mature biofilm
Description: (§1) The compounds were evaluated for their effect on biofilm susceptibility both under pre-treatment and combination treatment regimens. In the pre-treatment regimen, a methicillin resistant S. aureus Mu50 strain (S. aureus ATCC700699) was allowed to form biofilms in the presence of the compounds after which the biofilm was treated with vancomycin (20 μg/ml). In the combination treatment regimen, S. aureus Mu50 was allowed to form a mature biofilm after which it was treated with a combination of a compound and vancomycin. In brief, 100 μl of a standardized inoculum (10^8 CFU/ml) was placed in the wells of a round-bottom 96-well microtiter plate. The cells were allowed to adhere to the plate in the absence (combined treatment) or presence (pre-treatment) of the compounds (0.1-250 μM) for 4 h at 37° C. After this adhesion step, non-adhered cells were removed, the wells were rinsed and fresh medium with or without the compounds was added. The plates were incubated for an additional 20 h at 37° C. After this, the medium was removed, biofilms were rinsed with physiological saline and vancomycin (20 μg/ml) was added alone (pre-treatment) or with the compounds (combined treatment, 0.1-250 μM). Plates were placed at 37° C. for 24 h after which medium was removed, wells were rinsed and the surviving cells in each condition were collected. The number of surviving cells under each condition was compared to vancomycin treatment alone and was assessed by conventional plating. The REF compound (hamamelitannin) was also observed for its effect on biofilm susceptibility towards other antibiotics (incl. vancomycin, cefoxitin, tobramycin, cefazolin, cefalonium, daptomycin, linezolide and cephalexin). Biofilms were formed as described above and were treated with the antibiotics alone or in combination with the REF compound (250 μM). The number of surviving cells under each condition was compared to the untreated control biofilm and was assessed by conventional plating.

[2] = system: methicillin resistant S. aureus Mu50 strain (S. aureus ATCC700699) biofilm; assay: Biofilm susceptibility to vancomycin, pre-treatment regimen (biofilm formed in presence of compound, then vancomycin); format: cell-based; conditions: for Pretreat (100 μM): percentage Colony Forming Units (CFU's) per biofilm: compound 100 μM during biofilm formation; for Pretreat (100 μM): percentage Colony Forming Units (CFU's) per biofilm / Pretreat. (25 μM): percentage Colony Forming Units (CFU's) per biofilm: then VAN 20 μg/ml, compared to the untreated (negative) control; for EC50: concentration needed to get 50% killing compared to antibiotic alone (VAN 20 μg/ml) and complete killing, read-out: Pretreat. (EC50); for Pretreat. (25 μM): percentage Colony Forming Units (CFU's) per biofilm: compound 25 μM during biofilm formation
Description: as §1

SMILES	Combin. (100 μM): percentage Colony Forming Units (CFU's) per biofilm [1]	EC50 [1]	Pretreat (100 μM): percentage Colony Forming Units (CFU's) per biofilm [2]	EC50 [2]	Combin. (25 μM): percentage Colony Forming Units (CFU's) per biofilm [1]	Pretreat. (25 μM): percentage Colony Forming Units (CFU's) per biofilm [2]
O=C(NC[C@H]1OC[C@@](O)(CNC(=O)c2cc(O)c(O)c(O)c2)[C@@H]1O)c1cc(O)c(O)c(O)c1 [compound 264, N,N′-(((2R,3R,4S)-3,4-dihydroxytetrahydrofuran-2,4-diyl)bis(methylene))bis(3,4,5-trihydroxybenzamide)]	57.74 percentage	191 µM	22.35 percentage	63.8 µM	–	–
O=C(Cc1ccccc1)NC[C@]1(O)CO[C@H](CNC(=O)c2ccccc2Cl)[C@H]1O [compound 259, 2-chloro-N-(((2R,3R,4S)-3,4-dihydroxy-4-((2-phenylacetamido)methyl)tetrahydrofuran-2-yl)methyl)benzamide]	71.25 percentage	–	55.12 percentage	–	–	–
O=C(NC[C@]1(O)CO[C@H](CN2C(=O)c3ccccc3C2=O)[C@H]1O)c1ccccc1 [compound 173, N-(((3S,4R,5R)-5-((1,3-dioxoisoindolin-2-yl)methyl)-3,4-dihydroxytetrahydrofuran-3-yl)methyl)benzamide]	8.805 percentage	8.3 µM	11.18 percentage	5.01 µM	–	–
CC(=O)NC[C@H]1OC[C@@](O)(CNC(=O)c2ccccc2)[C@@H]1O [compound 225, N-(((3S,4R,5R)-5-(acetamidomethyl)-3,4-dihydroxytetrahydrofuran-3-yl)methyl)benzamide]	27.38 percentage	–	23.96 percentage	–	–	–
CN(C)c1cccc(C(=O)NC[C@H]2OC[C@@](O)(CNC(=O)c3ccccc3)[C@@H]2O)c1 [compound 165, N-(((2R,3R,4S)-4-(benzamidomethyl)-3,4-dihydroxytetrahydrofuran-2-yl)methyl)-3-(dimethylamino)benzamide]	26.43 percentage	–	16.00 percentage	–	–	–
N#Cc1ccc(C(=O)NC[C@H]2OC[C@@](O)(CNC(=O)c3ccccc3)[C@@H]2O)cc1 [compound 155, N-(((2R,3R,4S)-4-(benzamidomethyl)-3,4-dihydroxytetrahydrofuran-2-yl)methyl)-4-cyanobenzamide]	16.06 percentage	–	15.57 percentage	–	–	–
O=C(NC[C@]1(O)CO[C@H](CNC(=O)c2ccccc2Cl)[C@H]1O)c1ccc(C(F)(F)F)cc1 [compound 238, 2-chloro-N-(((2R,3R,4S)-3,4-dihydroxy-4-((4-(trifluoromethyl)benzamido)methyl)tetrahydrofuran-2-yl)methyl)benzamide]	–	75.2 µM	–	84.6 µM	68.51 percentage	45.03 percentage
O=C(NC[C@H]1OC[C@@](O)(CNC(=O)c2ccccc2)[C@@H]1O)c1cccc(C(F)(F)F)c1 [compound 166, N-(((2R,3R,4S)-4-(benzamidomethyl)-3,4-dihydroxytetrahydrofuran-2-yl)methyl)-3-(trifluoromethyl)benzamide]	12.34 percentage	12.3 µM	10.16 percentage	9.13 µM	–	–
O=C(NC[C@H]1OC[C@@](O)(CNC(=O)c2ccccc2Cl)[C@@H]1O)c1ccc(-c2ccccc2)cc1 [compound 250, N-(((2R,3R,4S)-4-((2-chlorobenzamido)methyl)-3,4-dihydroxytetrahydrofuran-2-yl)methyl)-[1,1′-biphenyl]-4-carboxamide]	29.48 percentage	61.3 µM	18.82 percentage	23 µM	–	–
O=C(NC[C@]1(O)CO[C@H](CNC(=O)c2ccccc2Cl)[C@H]1O)c1cncnc1 [compound 248, N-(((3S,4R,5R)-5-((2-chlorobenzamido)methyl)-3,4-dihydroxytetrahydrofuran-3-yl)methyl)pyrimidine-5-carboxamide]	–	–	–	–	65.41 percentage	64.01 percentage
O=C(NC[C@]1(O)CO[C@H](CNC(=O)c2ccccc2Cl)[C@H]1O)c1ccoc1 [compound 247, N-(((3S,4R,5R)-5-((2-chlorobenzamido)methyl)-3,4-dihydroxytetrahydrofuran-3-yl)methyl)furan-3-carboxamide]	–	76.7 µM	–	68.5 µM	49.94 percentage	42.14 percentage
O=C(NC[C@H]1OC[C@@](O)(CNC(=O)c2ccccc2)[C@@H]1O)c1cccc(Cl)c1 [compound 162, N-(((2R,3R,4S)-4-(benzamidomethyl)-3,4-dihydroxytetrahydrofuran-2-yl)methyl)-3-chlorobenzamide]	29.06 percentage	–	24.07 percentage	–	–	–
O=C(NC[C@]1(O)CO[C@H](CNC(=O)c2cccc3ccccc23)[C@H]1O)c1ccccc1 [compound 184, N-(((2R,3R,4S)-4-(benzamidomethyl)-3,4-dihydroxytetrahydrofuran-2-yl)methyl)-1-naphthamide]	40.23 percentage	–	33.91 percentage	–	–	–
O=C(NC[C@]1(O)CO[C@H](CNC(=O)c2ccccc2Cl)[C@H]1O)c1cccc(C(F)(F)F)c1 [compound 242, 2-chloro-N-(((2R,3R,4S)-3,4-dihydroxy-4-((3-(trifluoromethyl)benzamido)methyl)tetrahydrofuran-2-yl)methyl)benzamide]	–	–	–	–	87.14 percentage	117.15 percentage
O=C(NC[C@]1(O)CO[C@H](CNC(=S)Nc2ccccc2)[C@H]1O)c1ccccc1 [compound 224, N-(((3S,4R,5R)-3,4-dihydroxy-5-((3-phenylthioureido)methyl)tetrahydrofuran-3-yl)methyl)benzamide]	27.33 percentage	–	20.22 percentage	–	–	–
O=C(NC[C@H]1OC[C@@](O)(CNC(=O)c2ccccc2)[C@@H]1O)c1ccncc1 [compound 158, N-(((2R,3R,4S)-4-(benzamidomethyl)-3,4-dihydroxytetrahydrofuran-2-yl)methyl)isonicotinamide]	13.89 percentage	19.2 µM	7.268 percentage	9.94 µM	–	–
O=C(NC[C@]1(O)CO[C@H](CNC(=O)c2ccccn2)[C@H]1O)c1ccccc1 [compound 176, N-(((2R,3R,4S)-4-(benzamidomethyl)-3,4-dihydroxytetrahydrofuran-2-yl)methyl)picolinamide]	36.02 percentage	–	21.56 percentage	–	–	–

Reference: US10023602B2, “Hamamelitannin analogues and uses thereof” (Universiteit Gent, priority 2014, dated 2018)
